In patent publication US12662473B2, “Inhibitors for programmed cell necrosis and preparation method therefor and use thereof” (SHANGHAI INSTITUTE OF ORGANIC CHEMISTRY, CHINESE ACADEMY OF …, priority 2019, dated 2026):
Where two headings read alike, the source gives them in different places.

Key:
FADD−/− Jurkat cells = experiment: TNF-induced programmed cell necrosis inhibition, Cell Titer-Glo viability; type: cell-based; conditions: Homo sapiens, Jurkat
Outline: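 FADD-deficient Jurkat cells (2.5×10^5/mL) were pretreated 1 h at 37 °C with compound plus Smac (50 nM as added), then stimulated with TNFα (50 ng/mL as added) for 14 h at 37 °C, 5% CO2. Viability was measured as ATP by CellTiter-Glo luminescence, with unstimulated DMSO wells as 100%. EC50 values were derived.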

RIPK1 (S161E) = experiment: Effect of RIPK1 S161E mutation on compound activity (S161E MEFs western blot and cell death with TNFα and 5z7); type: cell-based, mouse; conditions: FIG. 6
Method: The biological test protocol used in this experiment was to test the effect of serine mutation at position 161 of RIPK1 to glutamic acid on the activity of the compound. The experiment was verified by two aspects. On the one hand, the mouse-derived MEFs cells in which RIPK1 (S161E) was put back after knocking out RIPK1 were treated with the compound of the present invention, and the phosphorylation state of RIPK1 was detected by western-blot; on the other hand, whether the compounds of the present invention have inhibitory effect on RIPK1-dependent apoptosis in the above-mentioned S161E cells was detected.
1. S161E MEFs cells were digested, and then diluted to 1.5×10^5/ml, and the cells were seeded into 6-well plates with 2 ml per well. The plate was placed in a cell incubator (37° C., 5% CO2) for 12 hours. 0.4 μL of compound 4-8 (50 mM in DMSO) or 0.4 μL of Nec-1s (50 μM in DMSO) was added to the wells respectively, 0.4 μL of DMSO was added to the control group. […] The BCA protein quantification kit was used to detect the protein content of each group, and PIPA lysis buffer was used to adjust the protein amount to make the final volume of 100 μL. […] The cells were incubated at room temperature for 30 min, and the luminescence value was detected to measure the level of intracellular ATP. […]

L929 cells = experiment: TNF-induced programmed cell necrosis inhibition, Cell Titer-Glo viability; type: cell-based, mouse; conditions: Mus musculus, read-out: EC50 inhibitory activity on programmed cell necrosis
Outline: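 L929 mouse fibroblasts were pretreated 1 h at 37 °C with compound plus Smac (500 nM solution added), then stimulated with TNFα (500 ng/mL solution added) for 14 h. Viability was read as ATP by CellTiter-Glo luminescence, with unstimulated DMSO wells set to 100%, and EC50 values were calculated.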

[1] = 14 h, TNFa + SM164, read-out: EC50 inhibitory activity on programmed cell necrosis
[2] = TNFa, read-out: EC50 inhibitory activity on programmed cell necrosis
[3] = L929, 14 h, L929 cells (mouse), TNFa + SM164

SMILES | EC50 (FADD−/− Jurkat cells; [1]) [µM] | EC50 (FADD−/− Jurkat cells; [2]) [µM] | inhibition of programmed cell necrosis after mutation of serine 161 of RIPK1 to glutamic acid (RIPK1 (S161E)) | EC50 (L929 cells; [3]) [nM] | EC50 (L929 cells; L929, L929 cells (mouse), TNFa) [nM]
Cc1ccc(C2CCCN2C(=O)C(C)(C)Oc2ccc(Cl)cc2)cc1 (stereo not drawn) [QY-4-8] | 0.568 | 0.091 | can still inhibit the programmed cells necrosis | 139 | 50
Cc1ccc(C2CCCN2C(=O)C(C)(C)C(=O)N2CCC(C)CC2)cc1 (stereo not drawn) [QY-14-8] | > 10 | > 10 |  | > 10000 | > 10000
Cc1ccc(C2CCCN2C(=O)C(C)(C)C(=O)N2CCN(C)CC2)cc1 (stereo not drawn) [QY-14-9] | > 10 | > 10 |  | > 10000 | > 10000
Cc1ccc(C2CCCN2C(=O)C(C)(C)Oc2cccc(C(N)=O)c2)cc1 (stereo not drawn) [QY-14-17] | > 10 | > 10 |  | > 10000 | > 10000
Cc1ccc(C2CCCN2C(=O)C(C)(C)Oc2cccc(C#N)c2)cc1 (stereo not drawn) [QY-14-24] | 0.939 | 0.022 |  | 66 | 15.4
CNC(=O)c1cccc(OC(C)(C)C(=O)N2CCCC2c2ccc(C)cc2)c1 (stereo not drawn) [QY-14-25] | > 10 | > 10 |  | > 10000 | > 10000
Cc1ccc(C2CCCN2C(=O)C(C)(C)Oc2cc(C(N)=O)ncn2)cc1 (stereo not drawn) [QY-14-27] | > 10 | > 10 |  | > 10000 | 8450
Cc1ccc(C2CCCN2C(=O)C(C)(C)C(=O)N2CCCC2)cc1 (stereo not drawn) [QY-14-29] | > 10 | > 10 |  | > 10000 | > 10000
Cc1ccc(C2CCCN2C(=O)C(C)(C)C(=O)n2cccn2)cc1 (stereo not drawn) [QY-14-30] | > 10 | > 10 |  | > 10000 | 4890
Cc1ccc(C2CCCN2C(=O)C(C)(C)C(=O)N2CCNC(=O)C2)cc1 (stereo not drawn) [QY-14-31] | > 10 | > 10 |  | > 10000 | > 10000
Cc1ccc(C2CCCN2C(=O)C(C)(C)C(=O)N2CCNCC2)cc1 (stereo not drawn) [QY-14-33] | > 10 | > 10 |  | > 10000 | > 10000
Cc1ccc(C2CCCN2C(=O)C(C)(C)Oc2ccc(C(N)=O)cc2)cc1 (stereo not drawn) [QY-14-34] | > 10 | 2.36 |  | > 10000 | 816
Cc1ccc(C2CCCN2C(=O)C(C)(C)Oc2cc(C#N)ncn2)cc1 (stereo not drawn) [QY-14-35] | > 10 | > 10 |  | > 10000 | > 10000
COc1cc(Cl)ccc1OC(C)(C)C(=O)N1N=CCC1c1cncc(F)c1 (stereo not drawn) [QY-14-40] | > 10 | > 10 |  | > 10000 | > 10000
Cc1ccc(C2CCCN2C(=O)C(C)(C)C(=O)N2CCCCC2)cc1 (stereo not drawn) [QY-14-44] | > 10 | > 10 |  | > 10000 | > 10000
Cc1ccc(C2CCCN2C(=O)C(C)(C)Oc2ccc(C#N)c(C#N)c2)cc1 (stereo not drawn) [QY-14-59] | > 10 | 4.57 |  | > 10000 | 467
Cc1ccc(C2CCCN2C(=O)C(C)(C)Oc2ccc(Cl)c(C#N)c2)cc1 (stereo not drawn) [QY-14-60] | 1.62 | 0.283 |  | 497 | 141
C#Cc1ccc(OC(C)(C)C(=O)N2CCCC2c2ccc(C)cc2)cc1 (stereo not drawn) [QY-14-68] | 0.18 | 0.0173 |  | 102 | 21
Cc1ccc(C2CCCN2C(=O)C(C)(C)Oc2ccc(C#CC(C)(C)O)cc2)cc1 (stereo not drawn) [QY-15-11] | > 10 | > 10 |  | > 10000 | 2840
Cc1ccc(C2CCCN2C(=O)C(C)(C)Oc2ccc(C#Cc3cccnc3)cc2)cc1 (stereo not drawn) [QY-15-12] | > 10 | > 10 |  | > 10000 | 5160
Cc1ccc(C2CCCN2C(=O)C(C)(C)Oc2ccc(C#CC3CCNCC3)cc2)cc1 (stereo not drawn) [QY-15-31] | > 10 | 0.818 |  | > 10000 | 82.4
[2H]C([2H])([2H])c1ccc(C2CCCN2C(=O)C(C)(C)Oc2ccc(Cl)cc2F)cc1 (stereo not drawn) [XHJ-3-22] | 1.46 |  |  | 302 | 40
CC(C)(Oc1ccc(Cl)cc1F)C(=O)N1N=CCC1c1ccccc1 (stereo not drawn) [ZSQ13-56, 2-(4-Chloro-2-fluorophenoxy)-2-methyl-1-(5-phenyl-4,5-dihydro-1H-pyrazol-1-yl)propan-1-one] | 0.424 | 0.049 |  | 201 | 28
CC(C)(Oc1ccc(Cl)cc1F)C(=O)N1N=CCC1c1ccc(F)cc1 (stereo not drawn) [ZSQ13-57] | 0.37 | 0.026 |  | 112 | 10
